# Results as given in US6680311B1, “Cryptophycin compounds” (Eli Lilly and Company, priority 1996, dated 2004).
# Counter-ions that a name gives are not always drawn.
# Key:
# Format in all cases: physicochemical
# [1] = Stability in parenteral formulation; conditions: formulation 6 of Table 4, up to 3 weeks, preliminary
# [2] = Solubility in excipient / parenteral vehicles; conditions: Propylene Glycol 15 % v/v, Polyethylele Glycol 3000 20 % v/v, volume adjusted 0.05 M acetate buffer
# [3] = Aqueous solubility and stability at pH 4-8
# Method: A comparison of stability characteristics between 1 and 12 in aqueous Ph ranging from 4-8 was determined at room temperature for 6 hours.
structure (smiles),measurement,setting,value
"COc1ccc(C[C@H]2NC(=O)/C=C/C[C@@H]([C@H](C)[C@@H](OC(=O)CN)[C@@H](Cl)c3ccccc3)OC(=O)[C@H](CC(C)C)OC(=O)C(C)(C)CNC2=O)cc1Cl [Compound 12, Cryptophycin 55 Glycinate Hydrochloride Salt]",stability in formulation 6,[1],acceptable stability
same,"Comparative solubility, vehicle 2",[2],>2000 µg/mL
same,course of aqueous solubility over the pH range studied,"[3]; aqueous pH 4-8, room temperature, 6 hours",remained substantially steady
same,stability in an aqueous environment,"[3]; physiological pH range, over longer periods of time",better stability
